Data: US20050239755A1, “External preparation for inhibiting keloid formation” (priority 2002, published 2005)

Experiments:
[1] = system: human fibroblast derived from keloid; assay: Test of inhibition of collagen gel shrinking (human fibroblast derived from keloid); type: cell-based; settings: for Shrinking rate: after 24 hours
Protocol: (§1) Test of Inhibition of Collagen Gel Shrinking. A collagen solution (1.5 mg/mL) (1 mL) and a suspension of human normal fibroblast or human fibroblast derived from keloid (1×10^5 cells) (1 mL) were added to a Petri dish (diameter; 35 mm) and mixed. The mixture was warmed for about 10 minutes in an incubator (37° C., 5% CO2) to prepare collagen gel. Further broth (1 mL) was added over thereon and was left for about 3 hours in the incubator (37° C., 5% CO2). The collagen gel was released from the Petri dish, and thereto was added a solution containing acetylsalicylic acid (its final concentration was respectively 0, 0.05, 0.5, 5, and 50 μM). The suspension was cultured in the incubator (37° C., 5% CO2) and after 24 hours the shrinking rate was evaluated.

human normal fibroblast = assay: Test of inhibition of collagen gel shrinking (human normal fibroblast); type: cell-based; settings: for Shrinking rate of collagen: after 24 hours
Protocol: as §1

Question: Which “shrinking of collagen (in words)” value ([1]; Table 10) does the source give for `CC(=O)Oc1ccccc1C(=O)O` [Acetylsalicylic acid] here?
Answer: inhibited

Question: And the Shrinking rate ([1]; acetylsalicylic acid 0.05 μM)?
Answer: 21%

Question: What about the Shrinking rate ([1]; acetylsalicylic acid 0.5 μM) of the same compound?
Answer: 19%

Question: What about the Shrinking rate ([1]; acetylsalicylic acid 5 μM) of the same compound?
Answer: 24%

Question: What about the Shrinking rate ([1]; acetylsalicylic acid 50 μM) of the same compound?
Answer: 20%

Question: What about the “shrinking of collagen (in words)” value (human normal fibroblast; Table 9) of the same compound?
Answer: inhibited

Question: And the “Shrinking rate of collagen” value (human normal fibroblast; acetylsalicylic acid 0.05 μM)?
Answer: 23%

Question: What about the “Shrinking rate of collagen” value (human normal fibroblast; acetylsalicylic acid 0.5 μM) of the same compound?
Answer: 12%

Question: And the “Shrinking rate of collagen” value (human normal fibroblast; acetylsalicylic acid 5 μM)?
Answer: 10%

Question: And the “Shrinking rate of collagen” value (human normal fibroblast; acetylsalicylic acid 50 μM)?
Answer: 14%
